Columns and labels:
[1] = target: GDP-bound NRAS wild-type protein (Homo sapiens, UniProt P01111); experiment: Binding to NRAS by surface plasmon resonance (SPR), KD and KD ratio to KRAS; conditions: ratio of KD value for GDP-bound NRAS wild-type protein to KD value for KRAS (SPR)
Procedure, shortened: (§1)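 Each cycle, GDP-bound biotin-Avi RAS was captured (~100–300 RU), compound concentrations were injected low to high for 75 s each at 100 µL/min, then the chip was regenerated. Buffer: HBS pH 7.4, 10 mM MgCl2, 10 µM GDP, 1 mM DTT, 4% DMSO; 30°C. KD from a 1:1 binding model.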

[2] = test system: human lung cancer strain NCI-H441; format: cell-based
Procedure, shortened: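 Signal came from […] measured per well once the reagent was added. Beforehand, cells were cultured at 37°C and 5% carbon dioxide on a compound series serially diluted in dimethyl sulfoxide.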

HRAS wild-type protein = HRAS wild-type protein (Homo sapiens, UniProt P01112); experiment: Binding to HRAS by surface plasmon resonance (SPR), KD and KD ratio to KRAS; conditions: ratio of KD value for HRAS wild-type protein to KD value for KRAS (SPR)
Sequence of HRAS wild-type protein (P01112 whole entry): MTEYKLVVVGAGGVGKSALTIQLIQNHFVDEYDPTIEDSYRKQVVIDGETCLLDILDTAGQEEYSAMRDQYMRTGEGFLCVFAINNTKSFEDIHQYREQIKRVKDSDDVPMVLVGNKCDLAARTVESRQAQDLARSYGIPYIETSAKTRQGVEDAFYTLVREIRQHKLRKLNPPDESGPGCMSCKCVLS
Procedure, shortened: as §1

Sequence of GDP-bound NRAS wild-type protein (P01111 whole entry): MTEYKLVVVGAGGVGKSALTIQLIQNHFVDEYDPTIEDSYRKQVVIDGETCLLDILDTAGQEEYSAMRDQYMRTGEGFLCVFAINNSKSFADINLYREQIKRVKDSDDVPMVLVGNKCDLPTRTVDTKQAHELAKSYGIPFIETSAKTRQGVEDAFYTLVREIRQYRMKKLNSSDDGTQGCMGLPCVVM

| Structure (SMILES) | NRAS /KRAS [1] | IC50 [2] [nM] | HRAS /KRAS (HRAS wild-type protein) |
| --- | --- | --- | --- |
| CCC[C@H]1C(=O)N[C@@H]([C@@H](C)CC)C(=O)N(C)CC(=O)N(C)[C@H]2C/C=C\CCN(C2=O)[C@@H](Cc2ccc(C(F)(F)F)cc2)C(=O)N(C)CC(=O)N[C@@H](CCc2ccc(C(F)(F)F)c(Cl)c2)C(=O)N2C[C@H](OCC)C[C@H]2C(=O)NC2(CC(C)(C)C2)C(=O)N(C)[C@@H](C2CCCC2)C(=O)N(C)[C@H](C(=O)N(C)C)CC(=O)N1C [PP1748] | A (a compound having 10 or more and less than 20 is denoted as A) | 3.1 | B (a compound having 3 or more and less than 10 is denoted as B) |
| CCO[C@@H]1C[C@H]2C(=O)NC3(CC(C)(C)C3)C(=O)N(C)[C@@H](C3CCCC3)C(=O)N(C)[C@H](C(=O)N(C)C)CC(=O)N(C)[C@@H](CC3CC3)C(=O)N[C@@H]([C@@H](C)CC)C(=O)N(C)CC(=O)N(C)[C@H]3C/C=C\CCN(C3=O)[C@@H](Cc3ccc(C(F)(F)F)cc3)C(=O)N(C)CC(=O)N[C@@H](CCc3ccc(C(F)(F)F)c(Cl)c3)C(=O)N2C1 [PP1749] | A (a compound having 10 or more and less than 20 is denoted as A) | 3.3 | A (a compound having 10 or more and less than 20 is denoted as A) |
| CCCC[C@H]1C(=O)N[C@@H]([C@@H](C)CC)C(=O)N(C)CC(=O)N(C)[C@H]2C/C=C\CCN(C2=O)[C@@H](Cc2ccc(C(F)(F)F)cc2)C(=O)N(C)CC(=O)N[C@@H](CCc2ccc(C(F)(F)F)c(Cl)c2)C(=O)N2C[C@H](OCC)C[C@H]2C(=O)NC2(CC(C)(C)C2)C(=O)N(C)[C@@H](C2CCCC2)C(=O)N(C)[C@H](C(=O)N(C)C)CC(=O)N1C [PP1750] | A (a compound having 10 or more and less than 20 is denoted as A) | 3.4 | B (a compound having 3 or more and less than 10 is denoted as B) |
| CCO[C@@H]1C[C@H]2C(=O)NC3(CC(C)(C)C3)C(=O)N(C)[C@@H](C3CCCC3)C(=O)N(C)[C@H](C(=O)N(C)C)CC(=O)N(C)[C@@H](CC(C)C)C(=O)N[C@@H]([C@@H](C)CC)C(=O)N(C)CC(=O)N(C)[C@H]3C/C=C\CCN(C3=O)[C@@H](Cc3ccc(C(F)(F)F)cc3)C(=O)N(C)CC(=O)N[C@@H](CCc3ccc(C(F)(F)F)c(Cl)c3)C(=O)N2C1 [PP1751] | A (a compound having 10 or more and less than 20 is denoted as A) | 2.2 | A (a compound having 10 or more and less than 20 is denoted as A) |
| CCO[C@@H]1C[C@H]2C(=O)NC3(CC(C)(C)C3)C(=O)N(C)[C@@H](C3CCCC3)C(=O)N(C)[C@H](C(=O)N(C)C)CC(=O)N(C)[C@@H](CC3CCC3)C(=O)N[C@@H]([C@@H](C)CC)C(=O)N(C)CC(=O)N(C)[C@H]3C/C=C\CCN(C3=O)[C@@H](Cc3ccc(C(F)(F)F)cc3)C(=O)N(C)CC(=O)N[C@@H](CCc3ccc(C(F)(F)F)c(Cl)c3)C(=O)N2C1 [PP1752] | A (a compound having 10 or more and less than 20 is denoted as A) | 5.8 | A (a compound having 10 or more and less than 20 is denoted as A) |
| CCO[C@@H]1C[C@H]2C(=O)NC3(CC(C)(C)C3)C(=O)N(C)[C@@H](C3CCCC3)C(=O)N(C)[C@H](C(=O)N(C)C)CC(=O)N(C)[C@@H](COC)C(=O)N[C@@H]([C@@H](C)CC)C(=O)N(C)CC(=O)N(C)[C@H]3C/C=C\CCN(C3=O)[C@@H](Cc3ccc(C(F)(F)F)cc3)C(=O)N(C)CC(=O)N[C@@H](CCc3ccc(C(F)(F)F)c(Cl)c3)C(=O)N2C1 [PP1753] | A (a compound having 10 or more and less than 20 is denoted as A) | 5.9 | A (a compound having 10 or more and less than 20 is denoted as A) |
| CCCOC[C@H]1C(=O)N[C@@H]([C@@H](C)CC)C(=O)N(C)CC(=O)N(C)[C@H]2C/C=C\CCN(C2=O)[C@@H](Cc2ccc(C(F)(F)F)cc2)C(=O)N(C)CC(=O)N[C@@H](CCc2ccc(C(F)(F)F)c(Cl)c2)C(=O)N2C[C@H](OCC)C[C@H]2C(=O)NC2(CC(C)(C)C2)C(=O)N(C)[C@@H](C2CCCC2)C(=O)N(C)[C@H](C(=O)N(C)C)CC(=O)N1C [PP1754] | A (a compound having 10 or more and less than 20 is denoted as A) | 3 | A (a compound having 10 or more and less than 20 is denoted as A) |
| CCCN(C)C(=O)[C@@H]1CC(=O)N(C)[C@@H](CC(F)F)C(=O)N[C@@H]([C@@H](C)CC)C(=O)N(C)CC(=O)N(C)[C@H]2C/C=C\CCN(C2=O)[C@@H](Cc2ccc(C(F)(F)F)cc2)C(=O)N(C)CC(=O)N[C@@H](CCc2cc(F)c(Cl)c(F)c2)C(=O)N2C[C@H](OCC)C[C@H]2C(=O)NC2(CC(C)(C)C2)C(=O)N(C)[C@@H](C2CCCC2)C(=O)N1C [PP1757] | AA (a compound having 20 or more is denoted as AA) | 7.1 | A (a compound having 10 or more and less than 20 is denoted as A) |
| CCC[C@H]1C(=O)N[C@@H]([C@@H](C)CC)C(=O)N(C)CC(=O)N(C)[C@H]2C/C=C\CCN(C2=O)[C@@H](Cc2ccc(C(F)(F)F)cc2)C(=O)N(C)CC(=O)N[C@@H](CCc2cc(F)c(Cl)c(F)c2)C(=O)N2C[C@H](OCC)C[C@H]2C(=O)NC2(CC(C)(C)C2)C(=O)N(C)[C@@H](C2CCCC2)C(=O)N(C)[C@H](C(=O)N(C)C)CC(=O)N1C [PP1758] | AA (a compound having 20 or more is denoted as AA) | 6 | A (a compound having 10 or more and less than 20 is denoted as A) |
| CCO[C@@H]1C[C@H]2C(=O)NC3(CC(C)(C)C3)C(=O)N(C)[C@@H](C3CCCC3)C(=O)N(C)[C@H](C(=O)N(C)C)CC(=O)N(C)[C@@H](CC3CC3)C(=O)N[C@@H]([C@@H](C)CC)C(=O)N(C)CC(=O)N(C)[C@H]3C/C=C\CCN(C3=O)[C@@H](Cc3ccc(C(F)(F)F)cc3)C(=O)N(C)CC(=O)N[C@@H](CCc3cc(F)c(Cl)c(F)c3)C(=O)N2C1 [PP1759] | A (a compound having 10 or more and less than 20 is denoted as A) | 6.2 | A (a compound having 10 or more and less than 20 is denoted as A) |
| CCO[C@@H]1C[C@H]2C(=O)NC3(CC(C)(C)C3)C(=O)N(C)[C@@H](C3CCCC3)C(=O)N(C)[C@H](C(=O)N(C)C)CC(=O)N(C)[C@@H](CC(C)C)C(=O)N[C@@H]([C@@H](C)CC)C(=O)N(C)CC(=O)N(C)[C@H]3C/C=C\CCN(C3=O)[C@@H](Cc3ccc(C(F)(F)F)cc3)C(=O)N(C)CC(=O)N[C@@H](CCc3cc(F)c(Cl)c(F)c3)C(=O)N2C1 [PP1761] | A (a compound having 10 or more and less than 20 is denoted as A) | 5.2 | A (a compound having 10 or more and less than 20 is denoted as A) |
| CCO[C@@H]1C[C@H]2C(=O)NC3(CC(C)(C)C3)C(=O)N(C)[C@@H](C3CCCC3)C(=O)N(C)[C@H](C(=O)N(C)C)CC(=O)N(C)[C@@H](CC3CCC3)C(=O)N[C@@H]([C@@H](C)CC)C(=O)N(C)CC(=O)N(C)[C@H]3C/C=C\CCN(C3=O)[C@@H](Cc3ccc(C(F)(F)F)cc3)C(=O)N(C)CC(=O)N[C@@H](CCc3cc(F)c(Cl)c(F)c3)C(=O)N2C1 [PP1762] | A (a compound having 10 or more and less than 20 is denoted as A) | 8.4 | A (a compound having 10 or more and less than 20 is denoted as A) |
| CCCN(C)C(=O)[C@@H]1CC(=O)N(C)[C@@H](COC)C(=O)N[C@@H]([C@@H](C)CC)C(=O)N(C)CC(=O)N(C)[C@H]2C/C=C\CCN(C2=O)[C@@H](Cc2ccc(C(F)(F)F)cc2)C(=O)N(C)CC(=O)N[C@@H](CCc2cc(F)c(Cl)c(F)c2)C(=O)N2C[C@H](OCC)C[C@H]2C(=O)NC2(CC(C)(C)C2)C(=O)N(C)[C@@H](C2CCCC2)C(=O)N1C [PP1763] | A (a compound having 10 or more and less than 20 is denoted as A) | 13.3 | A (a compound having 10 or more and less than 20 is denoted as A) |
| CCCOC[C@H]1C(=O)N[C@@H]([C@@H](C)CC)C(=O)N(C)CC(=O)N(C)[C@H]2C/C=C\CCN(C2=O)[C@@H](Cc2ccc(C(F)(F)F)cc2)C(=O)N(C)CC(=O)N[C@@H](CCc2cc(F)c(Cl)c(F)c2)C(=O)N2C[C@H](OCC)C[C@H]2C(=O)NC2(CC(C)(C)C2)C(=O)N(C)[C@@H](C2CCCC2)C(=O)N(C)[C@H](C(=O)N(C)C)CC(=O)N1C [PP1764] | AA (a compound having 20 or more is denoted as AA) | 11.1 | A (a compound having 10 or more and less than 20 is denoted as A) |
| CCO[C@@H]1C[C@H]2C(=O)NC3(CCC3)C(=O)N(C)[C@@H](C3CCCC3)C(=O)N(C)[C@H](C(=O)N(C)C)CC(=O)N(CC)[C@@H](CC(C)C)C(=O)N[C@@H]([C@@H](C)CC)C(=O)N(C)CC(=O)N(C)[C@H]3C/C=C\CCN(C3=O)[C@@H](Cc3ccc(C(F)(F)F)cc3)C(=O)N(C)CC(=O)N[C@@H](CCc3cc(F)c(C(F)(F)F)c(F)c3)C(=O)N2C1 [PP1765] | A (a compound having 10 or more and less than 20 is denoted as A) | 16.8 | A (a compound having 10 or more and less than 20 is denoted as A) |

— EP4603105A1, “PHARMACEUTICAL COMPOSITION CONTAINING CYCLIC COMPOUND HAVING SELECTIVE KRAS INHIBITORY EFFECT AGAINST HRAS AND NRAS” (CHUGAI SEIYAKU KABUSHIKI KAISHA, priority 2022, dated 2024)
